Reference: PubChem BioAssay (NCI)
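Cultured in 96-well plates, cells were exposed to test compound for 48 hours across five concentrations. The concentration for full growth arrest is given as TGI.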

Legend:
Experiment in all cases: growth of human tumour cells (NCI), 48 h
MOLT-4 leukemia = test system: MOLT-4 leukemia
TK-10 renal = test system: TK-10 renal
CCRF-CEM leukemia = test system: CCRF-CEM leukemia
A498 renal = test system: A498 renal
HCT-15 colon = test system: HCT-15 colon
HCT-116 colon = test system: HCT-116 colon
DU-145 prostate = test system: DU-145 prostate
OVCAR-5 ovarian = test system: OVCAR-5 ovarian
SK-MEL-28 melanoma = test system: SK-MEL-28 melanoma
NCI-H522 lung = test system: NCI-H522 lung

Structure (SMILES) | TGI (MOLT-4 leukemia) [µM] | TGI (TK-10 renal) [µM] | TGI (CCRF-CEM leukemia) [µM] | TGI (A498 renal) [µM] | TGI (HCT-15 colon) [µM] | TGI (HCT-116 colon) [µM] | TGI (DU-145 prostate) [µM] | TGI (OVCAR-5 ovarian) [µM] | TGI (SK-MEL-28 melanoma) [µM] | TGI (NCI-H522 lung) [µM]
CN(C)c1ccc(/C=c2/c3cc([N+](=O)[O-])ccc3n3c2cc(-c2ccccc2)[n+]3C)cc1 | 8.85 | 9.32 | 5.57 | 7.94 | 42.1 | 5.84 | 6.68 | 10.8 | 3.09 | 1.9
CCOP(=O)(OCC)C(Nc1ccc(F)cc1)c1ccccc1 (stereo not given) | > 100 | > 100 | > 100 | > 100 | > 100 | > 100 | > 100 | > 100 | > 100 | > 100
CC(=O)OCC1OC(N2C(S)=C(C#N)C(c3ccco3)C(C(C)=O)=C2c2ccccc2)C(OC(C)=O)C(OC(C)=O)C1OC(C)=O (stereo not given) | > 100 | > 100 | > 100 | > 100 | > 100 | > 100 | > 100 | > 100 | > 100 | > 100
O=C1c2cc([N+](=O)[O-])sc2C(=O)c2ccsc21 | 0.456 | 1.99 | 0.227 | 4.37 | 0.815 | 0.816 | 0.674 | 3.22 | 0.555 | 0.379
NCCCC[C@H](N)C(=O)Nc1ccc(-c2nc3ccccc3s2)cc1Cl | > 24.1 | 26.2 | 14.7 | 2.07 | 20.5 | 1.93 | 18 | 17.8 | 23.4 | 11
OC1c2ccccc2C(O)C2OC12 (stereo not given) | > 100 | > 100 | > 100 | > 100 | > 100 | > 100 | > 100 | > 100 | > 100 | > 100
CC[C@H](C)C1=C(OC(C)=O)[N@+]2([O-])Oc3ccc(-c4c(OC(C)=O)c(OC(C)=O)c(-c5ccc(OC(C)=O)cc5)c(OC(C)=O)c4OC(C)=O)cc3O[C@]2([C@@H](C)CC)C(=O)N1OC(C)=O | 36 | > 50 | 11.3 | 42.5 | > 50 | > 50 | > 50 | > 50 | > 50 | 16
OCC(O)C(O)C(O)C(O)/C=N/Nc1nc(O)c(/C=C2\C=Nc3ccccc32)[nH]1 (stereo not given) | > 100 | > 100 | > 100 | > 100 | > 100 | > 100 | > 100 | > 100 | > 100 | > 100
COc1cc(C=O)cc(C=Nc2ccc(S(N)(=O)=O)cc2)c1O | 64.2 | > 100 | 33.8 | 48.2 | > 100 | 94.7 | > 100 | > 100 | 99 | 44.5
CN(C)CCNc1nc2c(no[n+]2[O-])c2ccccc12 | 95.8 | 63.1 | > 100 | 31.6 | 57.4 | 52.9 | > 100 | > 100 | > 100 | 65.4
CC(=O)N(CN1C(=O)CCC1C(=O)O)c1ccccc1Cl (stereo not given) | > 100 | > 100 | > 100 | > 100 | > 100 | > 100 | > 100 | > 100 | > 100 | > 100
C=CC(Br)(CBr)CCC(Br)C(C)C (stereo not given) | 5.21 | 10.4 | 3.46 | 32.8 | 17.9 | 14.3 | 22.8 | 29.6 | 16.8 | 3.46
COc1ccc(C[C@@H]2OC3(C=CC(=O)C=C3)O[C@H]2Cc2ccc(OC)cc2)cc1 | 2.01 | 1.21 | 0.521 | 14.8 | 0.77 | 0.33 | 5.32 | 2.05 | 3.13 | 0.33
COC(=O)[C@H](CCSC)NC(=O)c1ccc(CNC(=O)/C(C)=C/c2ccccc2)cc1 | > 100 | > 100 | > 100 | > 100 | > 100 | > 100 | > 100 | > 100 | 64.7 | 32.5
CC1CN=C(c2ccc(COc3ccc(C4=NCC(C)N4)cc3)cc2)N1 (stereo not given) | > 100 | > 100 | > 100 | > 100 | > 100 | > 100 | > 100 | > 100 | > 100 | > 100
Cc1ccc2c(=O)c(-c3n[nH]c(=S)s3)c[nH]c2n1 | > 100 | > 100 | > 100 | > 100 | > 100 | > 100 | > 100 | > 100 | > 100 | > 100
O=[N+]([O-])c1ccc2ncccc2c1CCc1c([N+](=O)[O-])ccc2ncccc12 | > 100 | > 100 | > 100 | > 100 | > 100 | > 100 | > 100 | > 100 | > 100 | > 100
CCCCCCCCCCCCCCCCP(=O)([O-])OCC[N+](C)(C)C | 33.4 | 3.51 | 24.7 | 29.1 | 16.7 | 28 | 28.3 | 21.8 | 33.8 | 42.6
Cc1cc(C)c(N=Nc2c(O)c(S(=O)(=O)O)cc3cc(S(=O)(=O)O)ccc23)cc1C | > 100 | > 100 | > 100 | > 100 | > 100 | > 100 | > 100 | > 100 | > 100 | > 100
CCCC1(N)CC(OC)OC(C)C1O (stereo not given) | > 100 | > 100 | > 100 | > 100 | > 100 | > 100 | > 100 | > 100 | > 100 | > 100
COc1cccc(-c2cc(=O)c3cc(Cl)cnc3[nH]2)c1 | 28.3 | > 89.9 | > 100 | > 100 | 31.9 | 10.6 | > 36.4 | > 100 | > 100 | 3.51
CCOC(=O)CC[C@H](N)C(=O)N[C@H](Cc1ccc(N(CCCl)CCCl)cc1)C(=O)OCC | 31.5 | 8.51 | > 100 | 74.5 | 10.6 | > 36.2 | 3.77 | 14.7 | > 60.7 | 6.76
CC(C)c1cccc(C(C)C)c1OS(=O)(=O)NC(=O)OC(C(F)(F)F)C(F)(F)F | 55.6 | > 100 | > 100 | > 100 | > 100 | > 100 | > 100 | > 100 | > 100 | > 100
C=CCC(CNC(=O)OCc1ccccc1)OC(=O)OCc1ccccc1 (stereo not given) | > 100 | > 100 | > 100 | > 100 | > 100 | > 100 | > 100 | > 100 | > 100 | > 100
